Key:
E0771 mammary tumors = test: Orthotopic E0771 mammary tumors, tumor growth after localized irradiation with or without antibiotics/antifungals; assay type: in vivo, mice; settings: for tumor response to RT: agent for one week prior to localized kV irradiation (16 Gy), FIG. 26, 27A
Method: Orthotopic E0771 mammary tumors were grown to a median diameter of 1.0 cm and mice were then started with either antibiotics (Abx) or antifungals (AF) for one week prior to being treated with localized kV irradiation (16 Gy). Total tumor burden/animal assessed every 3 days until endpoint. […] Antibiotics (Abx) were ampicillin, imipenem, cilastin and vancomycin. Fluconazole was the antifungals (AF) used for these experiments. Significance was determined by two-way ANOVA. Kaplan-Meier survival curves are also shown with significance determined by the Log-Rank test (FIG. 26G, FIG. 26H). One of five experiments is shown. […] For all figures significance is shown as *p<0.05, **p<0.01, ***p<0.001.
Orthotopic E0771 mammary tumors were grown as described above and then treated with either the antifungal (5-fluorocytosine) one week prior to treatment with localized kV irradiation (16 Gy) (n=8 per group, one of two repeats shown) (FIG. 27A).
For experiments assessing antifungal treatment and the efficacy of radiation therapy (FIGS. 2 and 13), mice bearing syngeneic murine tumors (derived from the E0771 cell line) were treated for one week with fluconazole by putting fluconazole in their drinking water. When tumors reached approximately 1 cm in size they were irradiated with 16 Gray of focal radiation from a Cesium-137 source. The tumors were then followed for tumor growth until they reached approximately 2 cm in size at which time they were harvested for analysis.
For experiments assessing the anti-fungal combination treatment (FIG. 14), in addition to just fluconazole the mice were treated with a cocktail of antifungals (Fluconazole, 5-Fluorocytosine and Amphotericin B) for one week prior to RT.

intratumoral leukocytes = settings: FIG. 3; with RT; fluconazole added to RT and antibiotics
Method: Irradiated E0771 mammary tumors were harvested from mice at one week following RT. Tumors were dissociated using the tumor dissociation kit (Miltenyi Biotech) and CD45+ cells were then isolated with CD45+ MacsBeads. The resulting CD45+ cells were then stained with fluorescent antibodies and run on a flow cytometer. Total leukocytes (CD45+ Cells), CD4+ T cells, CD8+ T cells, M1 macrophages (CD11b+Ly6C+) and M1 macrophages (CD11b+F4/80′) were assessed following antibiotic (FIG. 28A-FIG. 28D) and antifungal (FIG. 28E-FIG. 28H) treatment. Antibiotics (Abx) were ampicillin, imipenem, cilastin and vancomycin. Fluconazole was the antifungal (AF) used for these experiments. n=5-7 per group and represent one of five independent experiments.

CD4+ T cells = test: Cytokine expression of CD4+ T cells from tumors; assay type: in vivo, mice; settings: FIG. 4
Excerpt: Tumors were harvested from mice at various time points and analyzed by flow cytometry (FACS) (FIG. 22A), immunohistochemistry (IHC) (FIG. 22B) and qPCR (FIG. 22C). FIG. 22A) For FACS, tumors were enzymatically dissociated with and labeled with fluorescently tagged antibodies and then placed on a flow cytometer. FIG. 22B) For IHC, tumor fragments were fixed in formalin and embedded in paraffin. 5 micron sections were then cut and stained with various antibodies and developed with DAB prior to whole-slide scanning on the Aperio system (Leica Biosystems). FIG. 22C) qPCR was performed on flow sorted immune cells (e.g. CD4+ T cells or macrophages) and then subjected to qPCR with a panel of primers.
Tumors are harvested and evaluated at three endpoints: 1, 2, 4 and 10 days following RT. […]

tumors = test: Tumor immunohistochemistry: proliferation, cell death, vessels; assay type: in vivo, mice; settings: FIG. 5
Method: Orthotopic E0771 mammary tumors were grown to a median diameter of 1.0 cm and mice were then started with either antibiotics (Abx) or antifungals (AF) for one week prior to being treated with localized kV irradiation (16 Gy). Total tumor burden/animal assessed every 3 days until endpoint. […] Antibiotics (Abx) were ampicillin, imipenem, cilastin and vancomycin. Fluconazole was the antifungals (AF) used for these experiments. Significance was determined by two-way ANOVA. Kaplan-Meier survival curves are also shown with significance determined by the Log-Rank test (FIG. 26G, FIG. 26H). One of five experiments is shown. Tumors from mice were harvested at one week following RT and stained for bromodeoxyuridine (BrdU) and cleaved caspase 3 (CC3) to assess for proliferation and cell death respectively (FIG. 26I, FIG. 26J). Slides were scanned using the Aperio slide scanner and analyzed using the ScanScope nuclear algorithm included in the Aperio software package. Significance was determined by two-way ANOVA. For all figures significance is shown as *p<0.05, **p<0.01, ***p<0.001.

Structure (SMILES)	tumor response to RT (E0771 mammary tumors)	CD4+ T cells (intratumoral leukocytes)	CD8+ T cells (intratumoral leukocytes)	IFN-γ expression by CD4+ T cells (CD4+ T cells)	IL-4 expression by CD4+ T cells (CD4+ T cells)	tumor apoptosis (tumors)	tumor cell division (tumors)	efficacy of RT (E0771 mammary tumors; FIG. 12A, RT 16 Gy)
Nc1nc(=O)[nH]cc1F [5-fluorocytosine]	similarly enhance the efficacy of RT							
OC(Cn1cncn1)(Cn1cncn1)c1ccc(F)cc1F [Fluconazole]	enhance	reduces the increase in CD4+ T cell	prevents the reduction of CD8+ T cells	more	less	opposite	opposite	increases the efficacy of RT

From patent US10772903B2, “Targeting fungi in combination with cancer therapy” (Cedars-Sinai Medical Center, priority 2016, dated 2020)
